≈ marks a conversion by molar mass, not a printed value. Like-named read-outs stand apart in the source and are kept apart here.
What was measured:
P. berghei ANKA strain [1] = assay: Onset of action and recrudescence experiment, single 100 mg/kg po; format: in vivo, Plasmodium berghei; conditions: single 100 mg/kg po (SSV) on day +3 post-infection; recrudescence = >5% parasitemia; followed up to 60 days; groups of five
Experimental: The onset of drug action was determined after a single fixed dose of 100 mg/kg (SSV vehicle) po to groups of five animals on day +3 post-infection (day 0).
(§1) Moro NMRI male mice (Fu Albino specific pathogen free) weighing 18±2 g were infected intravenously (i.v.) with 2×10^7 P. berghei ANKA strain-infected erythrocytes from donor mice on day 0 of the experiment. From donor mice with circa 30% parasitemia, heparinized blood was taken and diluted in physiological saline to 10^8 parasitized erythrocytes per ml. An aliquot (0.2 ml) of this suspension was injected i.v. into experimental and control groups of mice. […] Throughout the experiments, mice were kept in groups of three or five animals in Makrolon type II cages in an air-conditioned animal room at 22 to 23° C.

[2] = tested on: chloroquine-resistant K1 strain of P. falciparum; assay: In vitro antimalarial semiautomated microdilution assay ([3H]-hypoxanthine incorporation), K1 strain; format: cell-based, Plasmodium falciparum; conditions: Plasmodium falciparum, K1, 72 h
Outline: (§2)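 IC50 comes from Logit regression of [3H]-hypoxanthine incorporation data. Intraerythrocytic P. falciparum taken from asynchronous stock cultures is exposed to OZ compounds in a semiautomated microdilution format.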

[3] = tested on: ANKA strain of P. berghei; assay: Single dose STI in vivo screen in infected mice; set-up: species or system Plasmodium berghei; conditions: for Survival (days) 10 mg/kg SSV po: single 10 mg/kg po in SSV; for Survival (days) 10 mg/kg SSV po / Survival (days) 10 mg/kg po / Survival (days) 10 mg/kg sc: untreated 6-7 days; for Activity (%) 10 mg/kg SSV po: single 10 mg/kg po in standard suspending vehicle (SSV) on day 1 post-infection; for Survival (days) 10 mg/kg po: single 10 mg/kg po in 3% ethanol and 7% Tween 80; for Activity (%) 10 mg/kg po: single 10 mg/kg po in 3% ethanol and 7% Tween 80 on day 1 post-infection; for Survival (days) 10 mg/kg sc: single 10 mg/kg sc in 3% ethanol and 7% Tween 80; for Activity (%) 10 mg/kg sc: single 10 mg/kg sc in 3% ethanol and 7% Tween 80 on day 1 post-infection
[4] = tested on: chloroquine-sensitive NF54 strain of P. falciparum; assay: In vitro antimalarial semiautomated microdilution assay ([3H]-hypoxanthine incorporation), NF54 strain; format: cell-based, Plasmodium falciparum; conditions: Plasmodium falciparum, NF54, 72 h
Outline: as §2

P. berghei ANKA strain [5] = assay: Divided 3x3 mg/kg and 3x1 mg/kg po doses in infected mice; format: in vivo, Plasmodium berghei; conditions: for Activity (%): percent reduction of parasitemia vs control on day 4
Outline: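 Male NMRI mice were infected i.v. with 2×10^7 P. berghei-parasitized erythrocytes on day 0, then dosed orally in SSV vehicle on days 1, 2 and 3 post-infection.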

[6] = tested on: ANKA strain of Plasmodium berghei; assay: Single dose ED50/ED90/ED99 determination in infected mice; format: in vivo; conditions: single dose po in SSV on day 1 post-infection, parasitemia day 3, nonlinear fitting
Experimental: In the single dose ED50/ED98/ED99 determinations, Moro SPF or NMRI mice (group of three) infected with the ANKA strain of Plasmodium berghei were treated on day one post-infection. […] The SSV consists of 0.5% w/v CMC, 0.5% v/v benzyl alcohol, 0.4% v/v Tween 80, and 0.9% w/v sodium chloride in water. Antimalarial activity was measured by percent reduction in parasitemia on day three post-infection. The ED50/ED90 values were calculated by nonlinear fitting.
The ED50, ED90, and ED99 values were calculated by non-linear fitting with statistical program and were expressed in mg/kg.

P. berghei ANKA strain [7] = assay: Divided 3x10 mg/kg vs single 1x30 mg/kg po dose in infected mice; format: in vivo, Plasmodium berghei; conditions: for Cures 3 × 10 mg/kg p.o. SSV: 10 mg/kg po on days 1, 2, 3; for Cures 3 × 10 mg/kg p.o. SSV / Cures 1 × 30 mg/kg p.o. SSV: cure = survival to day 30 post-infection; for Cures 1 × 30 mg/kg p.o. SSV: single 30 mg/kg po
Experimental: as §1
They were administered per os (p.o.) in a total volume of 0.01 ml per gram of mouse. The activity of the compound was determined by a variety of methods outlined in subsequent sections. Survival time was also recorded, and survival to day 30 post-infection was considered to be a cure.
The first experiment conducted consisted of administration of a divided 3×10 mg/kg p.o. dose administered on days 1, 2, and 3 post-infection vs. a single 1×30 mg/kg po dose administered on day 1 post-infection. On day 4 post-infection, blood smears of all animals were prepared and stained with Giemsa. […] Compounds were administered orally in the SSV vehicle.

P. berghei ANKA strain [8] = assay: Prophylactic activity, single 100 mg/kg po at various times before infection; format: in vivo, Plasmodium berghei
Experimental: as §1
Prophylactic activities of the compounds were compared after administering po single dose of 100 mg/kg to different groups of five animals at various times before infection. All groups including an untreated control group, were then infected at the same time. Parasitemia was determined for each animal on day 3 post-infection, and percent of reduction of the level of parasitemia compared to levels for animals given no drug is determined.

[9] = tested on: Schistosoma mansoni 21-day-old schistosomules; assay: Effect on 21-day-old schistosomules in infected mice; format: in vivo; conditions: single 200 mg/kg per os, 21-day-old schistosomules; for % reduction of schistosomule growth at day 21 after per os application of 200 mg/kg, FWR (%): female worm reduction rate; for % reduction of schistosomule growth at day 21 after per os application of 200 mg/kg, TWR (%): total worm reduction rate
Experimental: Mice were infected with 100 Schistosoma mansoni cercariae on day 21 post-treatment. Each group was treated per os with trioxolanes at a single dose of 200 mg/kg. […] All groups were killed 4 weeks after treatment and the liver and intestine were removed and separated. The liver and intestine were compressed and alive male and female worms could be seen and counted. The effect of the compounds was evaluated by mean total and female worm burden.

[10] = tested on: Schistosoma mansoni adult worms (49-day-old); assay: Effect on adult schistosomes (49-day-old) in infected mice; format: in vivo; conditions: for % reduction of adult worms growth at day 49 after per os application of 400 mg/kg, TWR (%) / Adult worms day 49, per os 400 mg/kg, DEAD WORM (%): single 400 mg/kg per os
Experimental: Mice were infected with 100 Schistosoma mansoni cercariae on day 49 post-treatment. Each group was treated per os with OZ compounds at single doses of 200, 400, and 600 mg/kg. Untreated mice served as the control. All groups were killed 4 weeks after treatment and the liver and intestine were removed and separated. The liver and intestine were compressed and alive male and female worms could be seen and counted.

[11] = 3 × 1 mg/kg p.o. SSV on days 1, 2, 3 post-infection
[12] = 3 × 3 mg/kg p.o. SSV on days 1, 2, 3 post-infection
[13] = 10 mg/kg po on days 1, 2, 3 post-infection
[14] = single 30 mg/kg po on day 1 post-infection
[15] = percent reduction in parasitemia on day 3
[16] = 49-day-old adults, total worm reduction rate
[17] = percentage of dead worm in the liver
[18] = read-out: IC50 (ng/ml) K1, chloroquine-resistant K1 strain, 72 h incubation
[19] = read-out: IC50 (ng/ml) NF54, chloroquine-sensitive NF54 strain, 72 h incubation

SMILES	Time of Recrudescence (P. berghei ANKA strain [1])	Survival (days) 10 mg/kg SSV po [3]	Survival (P. berghei ANKA strain [5]; [11])	Survival (P. berghei ANKA strain [5]; [12])	ED99 [6]	Cures 3 × 10 mg/kg p.o. SSV (P. berghei ANKA strain [7])	Survival (days) 3 × 10 mg/kg p.o. SSV (P. berghei ANKA strain [7]; [13])	Survival (days) 1 × 30 mg/kg p.o. SSV (P. berghei ANKA strain [7]; [14])	Cures 1 × 30 mg/kg p.o. SSV (P. berghei ANKA strain [7])	Activity (%) 10 mg/kg SSV po [3, 15]	ED90 [6]	% reduction of schistosomule growth at day 21 after per os application of 200 mg/kg, FWR (%) [9]	% reduction of schistosomule growth at day 21 after per os application of 200 mg/kg, TWR (%) [9]	% reduction of adult worms growth at day 49 after per os application of 400 mg/kg, TWR (%) [10, 16]	Adult worms day 49, per os 400 mg/kg, DEAD WORM (%) [10, 17]	IC50 [2, 18]	Survival (days) 10 mg/kg po [3]	Activity (%) 10 mg/kg po [3, 15]	Survival (days) 10 mg/kg sc [3]	Activity (%) 10 mg/kg sc [3, 15]	other results
CCN(CC)CCCC(C)Nc1ccnc2cc(Cl)ccc12 (stereo not drawn) [CQ, chloroquine, reference compound]	17.8 days	9.0 days	7.2 days	10 days	5.9 mg/kg	0/5	14.3 days	9.5 days	0/5	–	–	–	–	–	–	–	–	–	–	–	IC50 ([2]; read-out: IC50 (ng/ml) K1): 76 ng/mL (≈ 238 nM); Survival (days) 3 mg/kg SSV po ([3]; single 3 mg/kg po in SSV): 8.0 days; IC50 ([4]; read-out: IC50 (ng/ml) NF54): 4.4 ng/mL (≈ 13.8 nM)
OC(c1cc(C(F)(F)F)nc2c(C(F)(F)F)cccc12)C1CCCCN1 (stereo not drawn) [MFQ, mefloquine, reference compound]	28.0 days	17 days	6.2 days	12 days	6.8 mg/kg	0/5	23.3 days	20.3 days	0/5	99.11%	5.4 mg/kg	–	–	–	–	–	–	–	–	–	Duration of prophylactic protection (P. berghei ANKA strain [8]; single 100 mg/kg po): 3 days; Prophylactic Activity (%) 24 h (P. berghei ANKA strain [8]; single 100 mg/kg po 24 h before infection, parasitemia reduction on day 3 post-infection): 100%; Prophylactic Activity (%) 48 h (P. berghei ANKA strain [8]; single 100 mg/kg po 48 h before infection, parasitemia reduction on day 3 post-infection): 99.92%; Prophylactic Activity (%) 72 h (P. berghei ANKA strain [8]; single 100 mg/kg po 72 h before infection, parasitemia reduction on day 3 post-infection): 99.97%; Prophylactic Activity (%) 0 h (P. berghei ANKA strain [8]; single 100 mg/kg po at 0 h, parasitemia reduction on day 3 post-infection): 100%; Activity (%) 3 mg/kg SSV po ([3]; single 3 mg/kg po in SSV, percent reduction in parasitemia on day 3): 9%; Activity (%) (P. berghei ANKA strain [5]; [11]): 2%; Activity (%) (P. berghei ANKA strain [5]; [12]): 98%; ED50 [6]: 4.0 mg/kg; Activity (%) 3 × 10 mg/kg p.o. SSV (P. berghei ANKA strain [7]; 10 mg/kg po on days 1, 2, 3 post-infection, parasitemia reduction on day 4): 99.92%; Activity (%) 1 × 30 mg/kg p.o. SSV (P. berghei ANKA strain [7]; single 30 mg/kg po on day 1 post-infection, parasitemia reduction on day 4): 99.94%
CC1(C)COC2(CCC3(CC2)OOC2(O3)C3CC4CC(C3)CC2C4)OC1 (stereo not drawn) [OZ11]	22.2 days	–	–	–	8.2 mg/kg	–	–	–	–	–	6.2 mg/kg	84%	85%	16%	4%	–	–	–	–	–	–
O=C(O)CC1CCC2(CC1)OOC1(O2)C2CC3CC(C2)CC1C3 (stereo not drawn) [OZ78]	11.2 days	–	–	–	17 mg/kg	–	–	–	–	–	9.1 mg/kg	87%	82%	0%	17%	–	–	–	–	–	% reduction of adult worms growth at day 49 after per os application of 200 mg/kg, TWR (%) ([10]; single 200 mg/kg per os, 49-day-old adults, total worm reduction rate): 24%; Adult worms day 49, per os 200 mg/kg, DEAD WORM (%) ([10]; single 200 mg/kg per os, percentage of dead worm in the liver): 29%; % reduction of adult worms growth at day 49 after per os application of 600 mg/kg, TWR (%) ([10]; single 600 mg/kg per os, 49-day-old adults, total worm reduction rate): 0%; Adult worms day 49, per os 600 mg/kg, DEAD WORM (%) ([10]; single 600 mg/kg per os, percentage of dead worm in the liver): 14%
c1ccc(C[C@H]2CC[C@]3(CC2)OOC2(O3)C3CC4CC(C3)CC2C4)cc1 (stereo partly drawn) [OZ156]	> 60 days	10.3 days	–	–	4.7 mg/kg	–	–	–	–	98.8%	2.6 mg/kg	–	–	0%	6%	2.1 ng/mL (≈ 5.92 nM)	17.0 days	99.98%	19.7 days	99.98%	IC50 [4, 19]: 2.1 ng/mL (≈ 5.92 nM); ED50 ([6]; Plasmodium berghei, po): 1.3 mg/kg
O=C(C[C@H]1CC[C@]2(CC1)OOC1(O2)C2CC3CC(C2)CC1C3)NO (stereo partly drawn) [OZ175]	13.0 days	12.3 days	–	–	9.9 mg/kg	–	–	–	–	97%	6.2 mg/kg	–	–	–	–	1.4 ng/mL (≈ 4.15 nM)	10.0 days	99.1%	8.7 days	92%	IC50 [4, 19]: 2 ng/mL (≈ 5.93 nM); ED50 ([6]; Plasmodium berghei, po): 3.5 mg/kg

From US6825230B2, “Spiro and dispiro 1,2,4-trixolane antimalarials” (Medicines for Malaria Venture MMV, priority 2002, dated 2004)
